Measurements: ChEMBL document CHEMBL4004816, “Complementarity of DFT Calculations, NMR Anisotropy, and ECD for the Configurational Analysis of Brevipolides K-O from Hyptis brevipes” (J Nat Prod, 2017)

Assays:
Type in all cases: functional, cell-based
PC-3 = assay: Cytotoxicity against human PC3 cells assessed as growth inhibition after 72 hrs by SRB assay; conditions: PC-3, 72 h
HCT-15 = assay: Cytotoxicity against human HCT15 cells assessed as growth inhibition after 72 hrs by SRB assay; conditions: HCT-15, 72 h
HeLa = assay: Cytotoxicity against human HeLa cells assessed as growth inhibition after 72 hrs by SRB assay
HEp-2 = assay: Cytotoxicity against human Hep2 cells assessed as growth inhibition after 72 hrs by SRB assay; conditions: HEp-2, 72 h
MCF7 = assay: Cytotoxicity against human MCF7 cells assessed as growth inhibition after 72 hrs by SRB assay; conditions: MCF7, 72 h
KB = assay: Cytotoxicity against human KB cells assessed as growth inhibition after 72 hrs by SRB assay

SMILES	IC50 (PC-3) [µM]	IC50 (HCT-15) [µM]	IC50 (HeLa) [µM]	IC50 (HEp-2) [µM]	IC50 (MCF7) [µM]	IC50 (KB) [µM]
C[C@H](OC(=O)/C=C/c1ccc(O)cc1)[C@@H]1CC[C@H]([C@H](O)[C@H]2CC=CC(=O)O2)O1	> 10	> 10	9.5	> 10	> 10	3.6
COc1ccc(/C=C\C(=O)O[C@@H](C)[C@@H]2CC[C@H]([C@H](O)[C@H]3CC=CC(=O)O3)O2)cc1	10	> 10	4.2	> 10	> 10	9.5
COc1ccc(/C=C/C(=O)O[C@@H](C)[C@@H]2CC[C@H]([C@H](O)[C@H]3CC=CC(=O)O3)O2)cc1	7.5	> 10	6	5.7	> 10	1.7
C[C@H](OC(=O)/C=C/c1ccc(O)c(O)c1)[C@@H]1CC[C@H]([C@H](O)[C@H]2CC=CC(=O)O2)O1	> 10	> 10	6.9	9.4	> 10	4.9
C[C@H](OC(=O)/C=C\c1ccc(O)cc1)[C@@H]1CC[C@H]([C@H](O)[C@H]2CC=CC(=O)O2)O1	8.8	> 10	3.3	7.7	9.3	7.5
CC[C@]1(O)C[C@@H]2CN(CCc3c([nH]c4ccccc34)[C@@](C(=O)OC)(c3cc4c(cc3OC)N(C)[C@H]3[C@@](O)(C(=O)OC)[C@H](OC(C)=O)[C@]5(CC)C=CCN6CC[C@]43[C@@H]65)C2)C1 [VINBLASTINE]	0.001	0.002	0.001	0.007	0.004	0.006
